Measured values as given in the Kinase Knowledgebase extract (Sharma et al. 2016).

Target: PIK3CB;PIK3CG;PIK3CD;PIK3CA (human) (UniProt P48736)
Assay: Enzyme Assay

| SMILES | IC50 [nM] |
| --- | --- |
| O=C(c1nn(C2CCC(O)CC2)c2c1CS(=O)(=O)c1ccccc1-2)N1CCOCC1 (configuration not stated) | 512 |
| COCCNc1ccc2c(c1)-c1c(c(C(=O)N3CCOCC3)nn1C1CCCCC1)CS2(=O)=O | 1390 |
| COCCNc1ccc2c(c1)S(=O)(=O)Cc1c(C(=O)N3CCOCC3)nn(-c3ccccc3)c1-2 | 6610 |
| Cc1ccc(-n2nc(C(=O)N3CCOCC3)c3c2-c2ccccc2S(=O)(=O)C3)cc1 | 690 |
| O=C(c1nn(-c2ccccc2)c2c1CS(=O)(=O)c1c(F)cccc1-2)N1CCOCC1 | 424 |
| O=C(NC1CCCCC1)N1CCC(n2nc(C(=O)N3CCOCC3)c3c2-c2ccccc2S(=O)(=O)C3)C1 (configuration not stated) | 875 |
| O=C(c1nn(C2CCCNC2)c2c1CS(=O)(=O)c1ccccc1-2)N1CCOCC1 (configuration not stated) | 3010 |
| O=C(c1nn(-c2cccc(N3CCCC3)c2)c2c1CS(=O)(=O)c1ccccc1-2)N1CCOCC1 | 4950 |
| Cc1nc(-c2cccc(-n3nc(C(=O)N4CCOCC4)c4c3-c3ccccc3S(=O)(=O)C4)c2)n[nH]1 | 4860 |
| O=C(c1nn(Cc2nc3ccccc3s2)c2c1CS(=O)(=O)c1ccccc1-2)N1CCOCC1 | 1490 |
| O=C(c1nn(C2CCCN(Cc3ccccc3)C2)c2c1CS(=O)(=O)c1ccccc1-2)N1CCOCC1 (configuration not stated) | 540 |
| COCCN1CCC(n2nc(C(=O)N3CCOCC3)c3c2-c2ccccc2S(=O)(=O)C3)CC1 | 1920 |
| O=C(c1nn(-c2cccc(CN3CCCC3)c2)c2c1CS(=O)(=O)c1ccccc1-2)N1CCOCC1 | 516 |
| COCc1ccc(-n2nc(C(=O)N3CCOCC3)c3c2-c2ccccc2S(=O)(=O)C3)cc1 | 667 |
| O=C(c1nn(-c2cccc(CN3CCC(O)CC3)c2)c2c1CS(=O)(=O)c1ccccc1-2)N1CCOCC1 | 573 |
| NC(=O)c1cccc(-n2nc(C(=O)N3CCOCC3)c3c2-c2ccccc2S(=O)(=O)C3)c1 | 957 |
| COc1cccc2c1S(=O)(=O)Cc1c(C(=O)N3CCOCC3)nn(C)c1-2 | 1730 |
| CC(=O)Nc1ccc2c(c1)-c1c(c(C(=O)N3CCOCC3)nn1-c1ccccc1)CS2(=O)=O | 876 |
| O=C(c1nn(-c2ccccc2)c2c1CS(=O)(=O)c1ccc(CN3CCOCC3)cc1-2)N1CCOCC1 | 1620 |
| Cc1ccncc1-n1nc(C(=O)N2CCOCC2)c2c1-c1ccccc1S(=O)(=O)C2 | 4040 |
| O=C(c1nn([C@@H]2CCCN(CCC3CCOCC3)C2)c2c1CS(=O)(=O)c1c(F)cccc1-2)N1CCOCC1 | 1920 |
| O=C(c1nn(-c2ccccc2)c2c1CS(=O)(=O)c1ccsc1-2)N1CCOCC1 | 643 |
| O=C(c1nn(-c2ccccc2)c2c1CS(=O)(=O)c1sccc1-2)N1CCOCC1 | 1700 |
| O=C(c1nn(-c2ccccc2)c2c1CS(=O)(=O)c1c(-c3ccccc3)cccc1-2)N1CCOCC1 | 17900 |
| COCc1noc(-c2cccc(-n3nc(C(=O)N4CCOCC4)c4c3-c3ccccc3S(=O)(=O)C4)c2)n1 | 4190 |
| O=C(c1nn(CCN2CCOCC2)c2c1CS(=O)(=O)c1ccccc1-2)N1CCOCC1 | 795 |

| SMILES | IC50 [nM] |
| --- | --- |
| CN(C)Cc1noc(-c2cccc(-n3nc(C(=O)N4CCOCC4)c4c3-c3ccccc3S(=O)(=O)C4)c2)n1 | 2980 |
| O=C(c1nn(-c2ccccc2)c2c1CS(=O)(=O)c1cc(C(F)(F)F)ccc1-2)N1CCOCC1 | 3060 |
| O=C(c1nn(-c2cccc(Cn3ccnc3)c2)c2c1CS(=O)(=O)c1ccccc1-2)N1CCOCC1 | 673 |
| O=C(c1nn(-c2cccc(Cl)c2)c2c1CS(=O)(=O)c1ccccc1-2)N1CCOCC1 | 440 |
| O=C(c1nn([C@@H]2CCCN(CCN3CCOCC3)C2)c2c1CS(=O)(=O)c1ccccc1-2)N1CCOCC1 | 1280 |
| CN(C)S(=O)(=O)c1cccc(-n2nc(C(=O)N3CCOCC3)c3c2-c2ccccc2S(=O)(=O)C3)c1 | 641 |
| O=C(c1nn(-c2ccccc2)c2c1CS(=O)(=O)c1ccncc1-2)N1CCOCC1 | 3050 |
| O=C(c1nn(-c2ccccn2)c2c1CS(=O)(=O)c1ccccc1-2)N1CCOCC1 | 1600 |
| O=C(c1cccc(-n2nc(C(=O)N3CCOCC3)c3c2-c2ccccc2S(=O)(=O)C3)c1)N1CCCC(CO)C1 (configuration not stated) | 502 |
| O=C(c1nn(-c2ccc(-c3ccccc3)cc2)c2c1CS(=O)(=O)c1ccccc1-2)N1CCOCC1 | 10300 |
| O=C(c1nn(-c2ccc3c(c2)OCCO3)c2c1CS(=O)(=O)c1ccccc1-2)N1CCOCC1 | 670 |
| COCCCN1CCC(n2nc(C(=O)N3CCOCC3)c3c2-c2ccccc2S(=O)(=O)C3)C1 (configuration not stated) | 923 |
| COCCOc1cccc(-n2nc(C(=O)N3CCOCC3)c3c2-c2ccccc2S(=O)(=O)C3)c1 | 726 |
| O=C(c1nn(C2CCC(CN3CCOCC3)CC2)c2c1CS(=O)(=O)c1ccccc1-2)N1CCOCC1 (configuration not stated) | 912 |
| CN(C)C(=O)c1ccc2c(c1)-c1c(c(C(=O)N3CCOCC3)nn1-c1ccccc1)CS2(=O)=O | 3730 |
| CC(C)(C)C1CCC(n2nc(C(=O)N3CCOCC3)c3c2-c2ccccc2S(=O)(=O)C3)CC1 (configuration not stated) | 4120 |
| CS(=O)(=O)c1cccc(-n2nc(C(=O)N3CCOCC3)c3c2-c2ccccc2S(=O)(=O)C3)c1 | 2560 |
| O=C(c1nn(CCO)c2c1CS(=O)(=O)c1ccccc1-2)N1CCOCC1 | 661 |
| CC(C)c1ccc(-n2nc(C(=O)N3CCOCC3)c3c2-c2ccccc2S(=O)(=O)C3)cc1 | 1470 |
| O=C(c1nn(C2CCNC2)c2c1CS(=O)(=O)c1ccccc1-2)N1CCOCC1 (configuration not stated) | 4640 |
| O=C(NC1CCOCC1)c1cccc(-n2nc(C(=O)N3CCOCC3)c3c2-c2ccccc2S(=O)(=O)C3)c1 | 1260 |
| COc1ccc2c(c1)S(=O)(=O)Cc1c(C(=O)N3CCOCC3)nn([C@@H]3CCCN(CCC4CCOCC4)C3)c1-2 | 10300 |
| CCCCNc1ccc2c(c1)S(=O)(=O)Cc1c(C(=O)N3CCOCC3)nn(-c3ccccc3)c1-2 | 9790 |
| Nc1ncc(-c2cccc(-n3nc(C(=O)N4CCOCC4)c4c3-c3ccccc3S(=O)(=O)C4)c2)cn1 | 454 |
| CCc1noc(Cn2nc(C(=O)N3CCOCC3)c3c2-c2ccccc2S(=O)(=O)C3)n1 | 1920 |

Next, values leading:

| IC50 [nM] | SMILES |
| --- | --- |
| 80 | O=C(c1nn(C2CCCN(CCn3cccn3)C2)c2c1CS(=O)(=O)c1c(F)cccc1-2)N1CCOCC1 (configuration not stated) |
| 57 | CC1CN(Cc2ccc(-n3nc(C(=O)N4CCOCC4)c4c3-c3ccccc3S(=O)(=O)C4)cc2)CC(C)O1 (configuration not stated) |
| 34 | O=C(c1nn(C2CCCN(CCN3CC[C@@H](F)C3)C2)c2c1CS(=O)(=O)c1ccccc1-2)N1CCOCC1 (some centres not stated) |
| 90 | O=C(c1nn(C2CCCN(CCCn3cccc3)C2)c2c1CS(=O)(=O)c1ccccc1-2)N1CCOCC1 (configuration not stated) |
| 280 | O=C(c1nn(-c2cccc(-c3cccnc3)c2)c2c1CS(=O)(=O)c1ccccc1-2)N1CCOCC1 |
| 319 | O=C(c1cccc(-n2nc(C(=O)N3CCOCC3)c3c2-c2ccccc2S(=O)(=O)C3)c1)N1CCS(=O)(=O)CC1 |
| 15 | O=C(c1nn([C@H]2CCCN(CCN3CCCCC3)C2)c2c1CS(=O)(=O)c1ccccc1-2)N1CCOCC1 |
| 167 | CC(C)CCOC1CCN(Cc2ccc(-n3nc(C(=O)N4CCOCC4)c4c3-c3ccccc3S(=O)(=O)C4)cc2)C1 (configuration not stated) |
| 49 | Cc1cccc2c1S(=O)(=O)Cc1c(C(=O)N3CCOCC3)nn([C@H]3CCCN(CCN4CCOCC4)C3)c1-2 |
| 326 | O=C(c1nn(C2CCCOC2)c2c1CS(=O)(=O)c1ccccc1-2)N1CCOCC1 (configuration not stated) |
| 67 | O=C(c1nn(C2CCCN(C3COC3)C2)c2c1CS(=O)(=O)c1ccccc1-2)N1CCOCC1 (configuration not stated) |
| 345 | O=C(CC1CCOCC1)N1CCC[C@H](n2nc(C(=O)N3CCOCC3)c3c2-c2ccccc2S(=O)(=O)C3)C1 |
| 422 | COc1ccc2c(c1)S(=O)(=O)Cc1c(C(=O)N3CCOCC3)nn(C)c1-2 |
| 11 | O=C(c1nn(C2CCCN(CC3CCOCC3)C2)c2c1CS(=O)(=O)c1ccccc1-2)N1CCOCC1 (configuration not stated) |
| 59 | COC1CCN(Cc2ccc(-n3nc(C(=O)N4CCOCC4)c4c3-c3ccccc3S(=O)(=O)C4)cc2)C1 (configuration not stated) |
| 120 | O=C(c1nn(C2CCCN(CCN3CCOCC3)C2)c2c1CS(=O)(=O)c1c(Cl)cccc1-2)N1CCOCC1 (configuration not stated) |
| 394 | O=C(c1nn(-c2cccc(CN3CCCCC3)c2)c2c1CS(=O)(=O)c1ccccc1-2)N1CCOCC1 |
| 13 | COC1CCN(CCN2CCC[C@H](n3nc(C(=O)N4CCOCC4)c4c3-c3ccc(F)cc3S(=O)(=O)C4)C2)CC1 |

| IC50 [nM] | SMILES |
| --- | --- |
| 165 | COC1CN(Cc2ccc(-n3nc(C(=O)N4CCOCC4)c4c3-c3ccccc3S(=O)(=O)C4)cc2)C1 |
| 240 | COC1CCN(Cc2cccc(-n3nc(C(=O)N4CCOCC4)c4c3-c3ccccc3S(=O)(=O)C4)c2)CC1 |
| 25 | O=C(c1nn([C@H]2CCCN(CC3CCOCC3)C2)c2c1CS(=O)(=O)c1ccccc1-2)N1CCOCC1 |
| 302 | COC1CCN(C(=O)c2cccc(-n3nc(C(=O)N4CCOCC4)c4c3-c3ccccc3S(=O)(=O)C4)c2)CC1 |
| 156 | O=C(c1nn(C2CCN(CCN3CC(F)(F)C3)C2)c2c1CS(=O)(=O)c1ccccc1-2)N1CCOCC1 (configuration not stated) |
| 284 | CC(=O)Nc1nc2c(s1)S(=O)(=O)Cc1c(C(=O)N3CCOCC3)nn(C3CCOCC3)c1-2 |
| 223 | O=C(c1nn(C2CCOCC2)c2c1CS(=O)(=O)c1ccccc1-2)N1CCOCC1 |
| 73 | O=C(c1cccc(-n2nc(C(=O)N3CCOCC3)c3c2-c2ccccc2S(=O)(=O)C3)c1)N1CCOCC1 |
| 36 | O=C(c1nn([C@H]2CCCN(C3CCCOC3)C2)c2c1CS(=O)(=O)c1ncccc1-2)N1CCOCC1 (some centres not stated) |
| 224 | O=C(c1nn(-c2ccc(CNC3CCCOC3)cc2)c2c1CS(=O)(=O)c1ccccc1-2)N1CCOCC1 (configuration not stated) |
| 320 | O=C(c1nn(C2CCCN(CCF)C2)c2c1CS(=O)(=O)c1ccccc1-2)N1CCOCC1 (configuration not stated) |
| 22 | O=C(c1nn([C@H]2CCCN(CCN3CC(F)(F)C3)C2)c2c1CS(=O)(=O)c1c(F)cccc1-2)N1CCOCC1 |
| 149 | O=C(c1nn(C2CCN(CCN3CCC(F)CC3)C2)c2c1CS(=O)(=O)c1ccccc1-2)N1CCOCC1 (configuration not stated) |
| 25 | COC1CCN(CCN2CCC[C@H](n3nc(C(=O)N4CCOCC4)c4c3-c3ccccc3S(=O)(=O)C4)C2)C1 (some centres not stated) |
| 25 | O=C(c1nn([C@H]2CCCN(C3CCCOC3)C2)c2c1CS(=O)(=O)c1c(F)cccc1-2)N1CCOCC1 (some centres not stated) |
| 113 | COCCN(C)Cc1ccc(-n2nc(C(=O)N3CCOCC3)c3c2-c2ccccc2S(=O)(=O)C3)cc1 |
| 34 | O=C(c1nn([C@H]2CCCN(CCC3CCOCC3)C2)c2c1CS(=O)(=O)c1ccccc1-2)N1CCOCC1 |
| 28 | CN1CCC(N2CCC[C@H](n3nc(C(=O)N4CCOCC4)c4c3-c3ccccc3S(=O)(=O)C4)C2)CC1 |
